# Patent publication US20130143913A1, “PROPHYLACTIC OR THERAPEUTIC AGENT FOR NON-ALCOHOLIC STEATOHEPATITIS” (KYORIN PHARMACEUTICAL CO., LTD., priority 2010, published 2013)
# Tests used:
# TNFα mRNA = TNFα mRNA expression in liver of MCD diet-fed mice (quantitative real-time PCR); type: in vivo, mice (male C57BI/6J); conditions: ibudilast 10, 30 or 100 mg/kg orally twice a day for 14 days (FIG. 4), relative to 18S rRNA
# Method: (§1) Effects of ibudilast on the hepatic inflammation and hepatic fibrosis were examined using methionine- and choline-deficient (MCD) diet-fed mice which induced hepatic inflammation and hepatic fibrosis involved in human pathological conditions like NASH. The MCD diet (Oriental Yeast Co., Ltd.) produced in accordance with the previous report by Okumura et al. (Okumura, K., et al. 2006, Hepatol. Res., 36: 217-228) was administered to male C57BI/6J mice (CLEA Japan, Inc.) at ten weeks of age for six weeks. […] Thereafter, TNFα, MCP-1, IL-1β, TGFβ, and col1a1 mRNA expressions in isolated liver were measured using the quantitative real-time PCR method. The 18S rRNA mRNA expression was used as an internal standard of the quantitative real-time PCR method and similarly measured. […] The quantitative real-time PCR was performed using TaqMan Fast Universal PCR Master Mix (Applied Biosystems) and Applied Biosystems 7500 Fast Real-Time PCR System (Applied Biosystems). […] Moreover, each operation relating to the quantitative real-time PCR was carried out in accordance with the manual attached to each reagent, kits and device. […]
# TGFβ mRNA = TGFβ mRNA expression in liver of MCD diet-fed mice (quantitative real-time PCR); type: in vivo, mice (male C57BI/6J); conditions: ibudilast 10, 30 or 100 mg/kg orally twice a day for 14 days (FIG. 7), relative to 18S rRNA
# Method: as §1
# col1a1 mRNA = col1a1 mRNA expression in liver of MCD diet-fed mice (quantitative real-time PCR); type: in vivo, mice (male C57BI/6J); conditions: ibudilast 10, 30 or 100 mg/kg orally twice a day for 14 days (FIG. 8), relative to 18S rRNA
# Method: as §1
# [1] = tested on: content of triglyceride in the liver; assay: Hepatic triglyceride content in fasted/re-fed mice (fatty liver model); type: in vivo, mice (male C57BI/6J); conditions: re-fed mice after 48 h fasting; ibudilast 10 and 100 mg/kg orally twice a day (FIG. 2); vs. vehicle
# Excerpt: In NAFLD, it is regarded that the increase of the fatty acid synthesis in the liver is an important factor involved in the fatty liver formation (Shinji, T., et al. 2005. J. Clin. Invest. 115: 1139-1142). Therefore, with reference to methods described in Delzenne et al. (Delzenne, N. M., et al., 1997, J. HepatoL, 26: 880-885) and Tsuchida et al. (Tsuchida. A., et al., 2004, J. Bio. Chem., 279: 30817-30822), effects of ibudilast on the fatty liver were examined by using re-fed mice in which the fatty acid synthesis in the liver is enhanced. After 48 hours of fasting, male C57BI/6J mice at 8 weeks of age (CLEA Japan, Inc.) were refed for four hours. To the vehicle group as a control, 2% (v/v) of PEG-60 hydrogenated castor oil (NIKKOL HCO-60, Nikko Chemicals Co., Ltd.) was orally administrated before fasting and after fasting periods of 12, 24, 36, and 48 hours. To ibudilast groups, […] or 100 mg/kg of ibudilast which was dissolved to 2% (v/v) of PEG-60 hydrogenated castor oil was orally administered before fasting and after fasting periods of 12, 24, 36, and 48 hours. […] The content of triglyceride and biosynthesis of fatty acid in isolated liver were measured. […] The dried extract was dissolved to 4% (v/v) of Triton X-100 and the triglyceride concentration was measured using Liquitech TG-II reagent (Roche Diagnostics K. K.). […]
# MCP-1 mRNA = MCP-1 mRNA expression in liver of MCD diet-fed mice (quantitative real-time PCR); type: in vivo, mice (male C57BI/6J); conditions: ibudilast 10, 30 or 100 mg/kg orally twice a day for 14 days (FIG. 5), relative to 18S rRNA
# Method: as §1
# [2] = tested on: fatty acid synthesis in the liver; assay: Hepatic fatty acid synthesis from [1-14C]acetic acid in fasted/re-fed mice (fatty liver model); type: in vivo, mice (male C57BI/6J); conditions: re-fed mice after 48 h fasting; ibudilast 10 and 100 mg/kg orally twice a day (FIG. 1); vs. vehicle
# Excerpt: In NAFLD, it is regarded that the increase of the fatty acid synthesis in the liver is an important factor involved in the fatty liver formation (Shinji, T., et al. 2005. J. Clin. Invest. 115: 1139-1142). Therefore, with reference to methods described in Delzenne et al. (Delzenne, N. M., et al., 1997, J. HepatoL, 26: 880-885) and Tsuchida et al. (Tsuchida. A., et al., 2004, J. Bio. Chem., 279: 30817-30822), effects of ibudilast on the fatty liver were examined by using re-fed mice in which the fatty acid synthesis in the liver is enhanced.
# After 48 hours of fasting, male C57BI/6J mice at 8 weeks of age (CLEA Japan, Inc.) were refed for four hours. […]
# The mice were refed with standard diet (CE-2, CLEA Japan, Inc.) after 30 minutes of the oral administration after fasting periods of 48 hours, and the mice were anatomized after refeeding periods of four hours. The content of triglyceride and biosynthesis of fatty acid in isolated liver were measured.
# The fatty acid synthesis in the liver was measured using the fatty acid synthesis from the acetic acid. […]
# After centrifugation, the chloroform layer was obtained as the lower layer. After the dried residue was dissolved to methanol, the scintillation cocktail was mixed with the obtained solution to measure radioactivity using liquid scintillation counter (Tri-Crab 1900CA, PerkinElmer). […]
# IL-1β mRNA = IL-1β mRNA expression in liver of MCD diet-fed mice (quantitative real-time PCR); type: in vivo, mice (male C57BI/6J); conditions: ibudilast 10, 30 or 100 mg/kg orally twice a day for 14 days (FIG. 6), relative to 18S rRNA
# Method: as §1
# [3] = tested on: triglyceride content in liver; assay: Hepatic triglyceride content in ob/ob mice (obesity-related fatty liver model); type: in vivo, mice (male ob/ob, B6.V-Lep^ob/J); conditions: ibudilast 10, 30 or 100 mg/kg orally twice a day for two weeks (FIG. 3), vs. vehicle
# Method: Obesity and insulin resistance are regarded as a major pathologic basis in NAFLD (Kristina, M., et al. 2006, J. Clin Endocrinol Metab., 91: 4753-4761). Therefore, effect of ibudilast on fatty liver was evaluated using B6.V-Lep^ob/J mice (ob/ob; Charles River Laboratories Japan, Inc.), a model of obesity-related insulin resistance and fatty liver. Male ob/ob mice (Charles River Laboratories Japan, Inc.) at seven weeks of age were used. To the vehicle group as a control, 2% (v/v) of PEG-60 hydrogenated castor oil (NIKKOL HCO-60, Nikko Chemicals Co., Ltd.) was orally administrated twice a day. To ibudilast groups, 10, 30 or 100 mg/kg of ibudilast which was dissolved to 2% (v/v). of PEG-60 hydrogenated castor oil was orally administered twice a day. At 15 to 21 hours after the end of two weeks administration period, the mice were dissected in the fed state. The content of triglyceride in isolated liver was measured. Triglyceride was extracted from the liver by using improved method of Folch et al. (Folch, J., et al. 1957. J. Biol. Chem., 226: 497-509). Tissues were homogenized by using chloroform methanol mixture 2:1 (v/v). […] The dried extract was dissolved to 4% (v/v) of Triton X-100 and the triglyceride concentration was measured using Liquitech TG-II reagent (Roche Diagnostics K. K.). […]
smiles,measurement,setting,value
"CC(C)C(=O)c1c(C(C)C)nn2ccccc12 [Ibudilast, ibudilast]",mRNA expression of TNFα in liver (index of hepatic inflammation),TNFα mRNA,decrease
same,mRNA expression of TGFβ in liver (index of hepatic fibrosis),TGFβ mRNA,decrease
same,mRNA expression of collal in liver (index of hepatic fibrosis),col1a1 mRNA,decrease
same,content of triglyceride in the liver,[1],significantly decreased
same,mRNA expression of MCP-1 in liver (index of hepatic inflammation),MCP-1 mRNA,decrease
same,fatty acid synthesis in the liver,[2],decreased
same,mRNA expression of IL-1β in liver (index of hepatic inflammation),IL-1β mRNA,decrease
same,triglyceride content in liver,[3],significantly decreased
